The target of assay [1] is T1, hTRPML1 (Homo sapiens, UniProt Q9GZU1).
T1 construct: expressed in transfected cells
In words: Cellular TRPML1 assay (FLIPR, GCaMP6f calcium read-out). The format is cell-based. Conditions: HEK T-REx/GCaMP6f/TRPML1 cells, FLIPR TETRA, kinetic response over 300 seconds; read-out: hTRPML1 FLIPR pEC50 (converted). As for the experimental part:
Buffers and reagents • PBS (D-PBS without calcium and magnesium; EuroClone) • Trypsin (Trypsin 0.05%, EDTA 0.02% in PBS; EuroClone) • DMSO (Sigma) • Ca^2+ free Tyrode's buffer: in-house solution (130 mM NaCl, 5 mM KCl, 1 mM MgCl2, 5 mM NaHCO3, 20 mM HEPES in water at pH 7.4; sterile filtered). • Opti-MEM (Gibco) • Agonist: ML-SA1 (Sigma); stock: 60 mM in DMSO, stored at −20° C. • Blocker: ML-SI3 (in house synthesis); stock: 20 mM in DMSO, stored at −20° C.
Cell line • The final clone for the TRPML1 assay is HEK T-REx/GCaMP6f/TRPML1. • GCaMP6f is a genetically encoded calcium indicator that is stably expressed in this cell line and used as a fluorescent read-out.
Cells are seeded at 15000 cells/well either in 25 µl/well of growth medium or in 20 μl/well of Optimem+0.5% FBS without selection antibiotics. Twenty-four hours later, cells are assayed for the response to various compounds using the Ca^2+ sensitive GCaMP6f protein stably expressed in the cells as readout.
The experiment is performed in a 384-well format according to the following procedures for either Ca^2+ free or Optimem conditions: • Ca^2+ free condition (in absence of extracellular Ca^2+): • 24 h after seeding, pre-incubate the cells at room temperature for about 10′. • Then remove the culture medium and replace it with 20 μL of Ca^2+ free Tyrode's buffer. • Start the experiment at the FLIPR^TETRA by injecting 10 μL/w of 3× concentrated test compounds and controls in Ca^2+ free Tyrode's buffer. Monitor the kinetic response over a period of 300 seconds. • Final DMSO concentration: 0.5% • Optimem condition (in presence of extracellular Ca^2+): • 24 h after seeding, pre-incubate the cells at room temperature for about 10′. • Start the experiment at the FLIPR^TETRA by injecting 10 μL/w of 3× concentrated test compounds and controls in Ca^2+ free Tyrode's buffer. Monitor the kinetic response over a period of 300 seconds. • Final DMSO concentration: 0.5%
Data from FLIPR^TETRA measurements are analyzed with the Genedata Screener© software.

In assay [2] the test system is autophagy reporter Rosella stably expressed in HeK293 cell line. As to the kind of experiment: Autophagy assay (Rosella-LC3 reporter, imaging). Type of assay: cell-based. Particulars: Homo sapiens; HeK293 cells with Rosella reporter (LC3 tag), 18 hours incubation, reference Torin-1; read-out: Autophagy pEC50 (converted). On the procedure: • Tyrode's buffer with 2 mM Ca^2+ in-house solution (130 mM NaCl, 5 mM KCl, 2 mM CaCl2), 1 mM MgCl2, 5 mM NaHCO3, 20 mM HEPES in water at pH 7.4; sterile filtered) • DMSO (Sigma) • Bis-benzimide H 33342 trihydrochloride (Hoechst 33342; Sigma-Aldrich) • Reference molecule (agonist): Torin-1, (#4247, Tocris) stock 1.2 mM in DMSO, stored at −20° C. Reporter of Autophagy and Cell line
Reporter Rosella: a fluorescent-based chimera constitutes by two fluorescent proteins, Green and Red variants, acting as a bimodal indicator of pH. The green fluorescent variant of the constructs is pH sensitive (pKa=6.9) while the red variant is not pH sensitive and it is used as reference. The reporter is fused to sequence for autophagosome localization (LC3 tag).
The reporter Rosella have been stably expressed in HeK293 cell line and used as read-out.
Experiments have been performed in 384 MTP poly-lysine coated well format. Cells have been seeded in 384-w at a density of 6000 cells/well in 25 μl/well complete growth medium without antibiotics. Twenty-four hours later, cells have been treated with compounds and incubated for further 18 hours. Then the cells have been imaged and assayed for the response to various compounds using the reporter for autophagy expressed in the cells as readout.
The experiments were performed in a 384-well format according to the following procedure: • 24 h after seeding, cells were incubated with compounds at the desired concentration, and with the reference molecule (agonist) Torin-1 at a top concentration of 1 μM (max signal), for 18 hours at 37° C. and 5% CO2. The final percentage of DMSO was 0.3% in all the conditions. • Then the culture medium was carefully removed to avoid cells detachment and to discard red phenol into the medium and that can interfere with the measurements. • Staining of the nuclei was obtained by incubating the cells with 8 μM/well of Hoechst 3342 in standard Tyrode's buffer for 20 min at RT • Then the cells were carefully washed two times with standard Tyrode's buffer • Finally, the samples were acquired by recording three fluorescence emission channels (green, red and blue) at 20× magnification and with at least 3-4 fields of view per well in an Operetta CLS microscope (PerkinElmer). • Image analysis was performed by using Harmony software (PerkinElmer). The image analysis involved the following steps: flat-field illumination correction, nuclei segmentation, cell segmentations and identification of vesicles/granules within the cytosol compartments and representing the autophagy vesicles. Measurements of signal intensity ratio (Green to Red) and number of autophagy vesicles per cells were used to obtain information on the effects of compounds on the autophagy flux. • Data from image analysis measurements were finally loaded and analyzed for normalization and fitting procedures in Genedata Screener© software.

T1 sequence (Q9GZU1 whole entry): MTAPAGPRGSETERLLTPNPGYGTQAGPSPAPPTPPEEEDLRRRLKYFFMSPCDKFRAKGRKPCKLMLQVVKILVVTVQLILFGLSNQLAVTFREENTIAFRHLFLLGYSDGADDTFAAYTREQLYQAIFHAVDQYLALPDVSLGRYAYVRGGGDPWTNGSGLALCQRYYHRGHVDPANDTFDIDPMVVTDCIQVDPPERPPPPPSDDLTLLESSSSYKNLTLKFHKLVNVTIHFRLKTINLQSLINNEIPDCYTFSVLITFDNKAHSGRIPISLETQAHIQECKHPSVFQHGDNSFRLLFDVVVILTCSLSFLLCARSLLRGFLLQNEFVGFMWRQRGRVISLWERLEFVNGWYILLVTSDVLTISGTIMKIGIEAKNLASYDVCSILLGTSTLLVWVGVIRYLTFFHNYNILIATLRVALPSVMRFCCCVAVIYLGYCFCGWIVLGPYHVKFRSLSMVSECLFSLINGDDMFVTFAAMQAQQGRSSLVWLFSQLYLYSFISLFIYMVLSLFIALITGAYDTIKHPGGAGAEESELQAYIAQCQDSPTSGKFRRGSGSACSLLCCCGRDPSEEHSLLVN

As for `CN(C)S(=O)(=O)c1ccc(S(=O)(=O)Nc2ccccc2N2CCCC(OCc3ccccc3)C2)cc1` (racemic) [Example 25, N^1-(2-(3-(benzyloxy)piperidin-1-yl)phenyl)-N^4,N^4-dimethylbenzene-1,4-disulfonamide], the EC50 in assay [1] and in assay [2] was 1 to 3.16 µM in each case.
`CN(C)S(=O)(=O)c1ccc(S(=O)(=O)Nc2ccccc2N2CCCC(Oc3ccccc3)C2)cc1` (racemic) [Example 28, N^1,N^1-dimethyl-N^4-(2-(3-phenoxypiperidin-1-yl)phenyl)benzene-1,4-disulfonamide]: the EC50 in assay [1] was 1 to 3.16 µM; in assay [2] it was below 1 µM.
The corresponding values for `CN(C)S(=O)(=O)c1ccc(S(=O)(=O)Nc2ccccc2N2CCCC(COc3ccccc3)C2)cc1` (racemic) [Example 34, N^1,N^1-dimethyl-N^4-(2-(3-(phenoxymethyl)piperidin-1-yl)phenyl)benzene-1,4-disulfonamide] are 1 to 3.16 µM and 1 to 3.16 µM.
The like results for `CN(C)S(=O)(=O)c1ccc(C(=O)N(c2ccccc2N2CCC(Oc3ccccc3)CC2)C2CCCC2)cc1` [Example 1, N-cyclopentyl-4-(N,N-dimethylsulfamoyl)-N-(2-(4-phenoxypiperidin-1-yl)phenyl)benzamide] were, in that order, 1 to 3.16 µM and below 1 µM.
The like results for `CN(C)S(=O)(=O)c1ccc(C(=O)N(c2ccccc2N2CCC(Oc3ccccc3)CC2)C2CCC2)cc1` [Example 2, N-cyclobutyl-4-(N,N-dimethylsulfamoyl)-N-(2-(4-phenoxypiperidin-1-yl)phenyl)benzamide] were, in that order, 1 to 3.16 µM and below 1 µM.
As for `CCS(=O)(=O)c1ccc(S(=O)(=O)Nc2ccccc2N2CCC(Oc3ccccc3)CC2)cc1` [Example 6, 4-(ethylsulfonyl)-N-(2-(4-phenoxypiperidin-1-yl)phenyl)benzenesulfonamide], the EC50 in assay [1] and in assay [2] was above 3.16 µM throughout.
`CN(C)S(=O)(=O)c1ccc(S(=O)(=O)Nc2cccc(F)c2N2CCC(Oc3ccccn3)CC2)cc1` [Example 8, N^1-(3-fluoro-2-(4-(pyridin-2-yloxy)piperidin-1-yl)phenyl)-N^4,N^4-dimethylbenzene-1,4-disulfonamide]: the EC50 in assay [1] and in assay [2] was below 1 µM throughout.
For the molecule `O=S(=O)(Nc1cccc(F)c1N1CCC(Oc2ccccn2)CC1)c1ccc(C(F)(F)F)cc1` [Example 10, N-(3-fluoro-2-(4-(pyridin-2-yloxy)piperidin-1-yl)phenyl)-4-(trifluoromethyl)benzenesulfonamide], the EC50 in assay [1] and in assay [2] was 1 to 3.16 µM each time.
For the molecule `CC(C)(C)OC(=O)N1CCN(c2ccccc2NS(=O)(=O)c2ccc(C(F)(F)F)cc2)CC1` [Example 17, tert-butyl 4-(2-((4-(trifluoromethyl)phenyl)sulfonamido)phenyl) piperazine-1-carboxylate], the EC50 in assay [1] was 1 to 3.16 µM; in assay [2], below 1 µM.
The corresponding values for `Cc1ccc(S(=O)(=O)Nc2ccccc2N2CCN(C(=O)OC(C)(C)C)CC2)cc1F` [Example 19, tert-butyl 4-(2-((3-fluoro-4-methylphenyl)sulfonamido)phenyl)piperazine-1-carboxylate] are 1 to 3.16 µM and above 3.16 µM.
The like results for `Cc1ccc(S(=O)(=O)Nc2c(C)cccc2N2CCN(C(=O)OC(C)(C)C)CC2)cc1` [Example 22, tert-butyl 4-(3-methyl-2-((4-methylphenyl)sulfonamido)phenyl)piperazine-1-carboxylate] were, in that order, 1 to 3.16 µM and above 3.16 µM.
Regarding `CC(C)(C)OC(=O)N1CCN(c2ccccc2NS(=O)(=O)c2ccc(C3CC3)cc2)CC1` [Example 23, tert-butyl 4-(2-((4-cyclopropylphenyl)sulfonamido)phenyl) piperazine-1-carboxylate], the EC50 in assay [1] is 1 to 3.16 µM; in assay [2] it was above 3.16 µM.
For the molecule `CN(C)S(=O)(=O)c1ccc(S(=O)(=O)Nc2ccccc2N2CCOC(C3CC3)C2)cc1` (stereo not shown) [Example 31, N^1-(2-(2-cyclopropylmorpholino)phenyl)-N^4, N^4-dimethylbenzene-1,4-disulfonamide], the EC50 in assay [1] and in assay [2] was above 3.16 µM in each case.
In the case of `CN(C)S(=O)(=O)c1ccc(S(=O)(=O)Nc2ccccc2N2CCOC(C3CCC3)C2)cc1` (stereo not shown) [Example 32, N^1-(2-(2-cyclobutylmorpholino)phenyl)-N^4,N^4-dimethylbenzene-1,4-disulfonamide], the EC50 in assay [1] is above 3.16 µM; in assay [2] it was 1 to 3.16 µM.
The like results for `C#CCC1CN(c2ccccc2NS(=O)(=O)c2ccc(S(=O)(=O)N(C)C)cc2)CCO1` (stereo not shown) [Example 33, N^1,N^1-dimethyl-N^4-(2-(2-(prop-2-yn-1-yl)morpholino)phenyl)benzene-1,4-disulfonamide] were, in that order, above 3.16 µM and below 1 µM.
The like results for `CN(C)S(=O)(=O)c1ccc(S(=O)(=O)Nc2ccccc2N2CCC(C)(c3ccccc3)CC2)cc1` [Example 38, N^1,N^1-dimethyl-N^4-(2-(4-methyl-4-phenylpiperidin-1-yl)phenyl)benzene-1,4-disulfonamide] were, in that order, 1 to 3.16 µM and below 1 µM.
The corresponding values for `CN(C)S(=O)(=O)c1ccc(S(=O)(=O)Nc2ccccc2N2CCC(C)(Oc3ccccn3)CC2)cc1` [Example 40, N^1,N^1-dimethyl-N^4-(2-(4-methyl-4-(pyridin-2-yloxy)piperidin-1-yl)phenyl)benzene-1,4-disulfonamide] are above 3.16 µM and below 1 µM.

For the origin of these results see US20240254083A1, “HETEROCYCLIC TRPML1 AGONISTS AND USES THEREOF” (Libra Therapeutics, Inc., priority 2021, published 2024).
